Measurements from patent US20250236617A1, “BICYCLIC TETRAHYDROTHIAZEPINE DERIVATIVES” (Hoffmann-La Roche Inc., priority 2022, published 2025).

Columns and labels:
[1] = target: DGKalpha (hDGKalpha(1-735)-N-His) (Homo sapiens (Human), UniProt P23743); experiment: In vitro DGK inhibition assay, ADP-Glo (in house), DGKalpha; type: biochemical; conditions: DLG liposomes, 25 μM ATP, 4 nM enzyme, 1 hour reaction
Experimental: (§1) DGK α and ζ kinases use ATP to phosphorylate the substrate 1,2-dilauroyl-sn-glycerol (DLG, incorporated in the liposomes). ATP is converted to ADP as a result of this enzymatic reaction.
(§2) After the kinase reaction, an ATP-depletion reagent is added to terminate the kinase reaction and deplete any remaining ATP, leaving only ADP. Second, a detection reagent is added to simultaneously convert ADP to ATP and allow the newly synthesized ATP to be converted to light using a coupled luciferase/luciferin reaction.
(§3) Purification of both enzymes was performed as previously described by Takahashi et al., PeerJ, 2018 (Takahashi, D.; Sakane, F. Expression and purification of human diacylglycerol kinase alpha from baculovirus-infected insect cells for structural studies. PeerJ 2018, 6, No. e5449).
(§4) A concentrated liposome solution was prepared in assay buffer without DTT and BSA: 2 mM of DLG in 21 mM of total liposome (2 mM DLG/8 mM PS/11 mM PC). The reaction mixtures contain the assay buffer with a final DLG concentration of 125 uM ATP concentrations of 25 μM (for DGKA assay) or 50 μM (for DGKZ assay). The reactions were started by addition of DGK α and ζ kinases at 4 nM and 2 nM final concentrations, respectively. After 1 hour reaction, the amount of ADP formed was detected with the ADP-Glo kinase assay (Promega) according to the manufacturer instructions. Compounds were added in 11-points dose response, starting at […], 1:3 dilutions, with a final DMSO concentration of 2%. The multidrop combi was used as a liquid handler and luminescence was read with 0.5 s by the envision reader (PE).

[2] = target: DGKzeta (hDGKzeta(1-928)-N-His) (Homo sapiens (Human), UniProt Q13574); experiment: In vitro DGK inhibition assay, ADP-Glo (in house), DGKzeta; type: biochemical; conditions: DLG liposomes, 50 μM ATP, 2 nM enzyme, 1 hour reaction
Sequence of DGKzeta (hDGKzeta(1-928)-N-His) (Q13574 whole entry): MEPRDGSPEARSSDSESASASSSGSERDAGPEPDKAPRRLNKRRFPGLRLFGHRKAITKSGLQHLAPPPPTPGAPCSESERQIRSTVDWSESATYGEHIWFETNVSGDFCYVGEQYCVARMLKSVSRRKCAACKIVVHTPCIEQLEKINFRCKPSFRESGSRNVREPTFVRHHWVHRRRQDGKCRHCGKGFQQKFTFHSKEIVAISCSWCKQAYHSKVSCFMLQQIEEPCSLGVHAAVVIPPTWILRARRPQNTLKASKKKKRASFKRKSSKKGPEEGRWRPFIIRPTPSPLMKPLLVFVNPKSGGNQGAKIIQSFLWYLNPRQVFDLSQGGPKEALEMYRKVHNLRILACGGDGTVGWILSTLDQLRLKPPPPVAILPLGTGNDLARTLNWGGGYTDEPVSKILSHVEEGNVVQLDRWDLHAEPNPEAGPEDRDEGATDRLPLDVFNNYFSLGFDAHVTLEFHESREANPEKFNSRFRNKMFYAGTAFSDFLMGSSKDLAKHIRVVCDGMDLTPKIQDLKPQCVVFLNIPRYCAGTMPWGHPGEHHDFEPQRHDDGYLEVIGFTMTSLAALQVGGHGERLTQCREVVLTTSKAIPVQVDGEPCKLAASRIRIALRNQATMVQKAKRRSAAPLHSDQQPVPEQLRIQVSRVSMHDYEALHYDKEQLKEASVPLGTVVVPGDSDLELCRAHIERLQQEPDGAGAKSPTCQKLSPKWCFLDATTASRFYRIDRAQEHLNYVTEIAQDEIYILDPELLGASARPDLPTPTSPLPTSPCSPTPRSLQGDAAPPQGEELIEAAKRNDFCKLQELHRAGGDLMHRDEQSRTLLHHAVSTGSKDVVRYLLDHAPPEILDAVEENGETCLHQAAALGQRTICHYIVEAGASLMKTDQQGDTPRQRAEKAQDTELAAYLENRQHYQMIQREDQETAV
Experimental: as §1, §2, §3, §4

primary human T-cells [3] = experiment: IL2 secretion measurements in CD3-stimulated T-cells; type: cell-based; conditions: CD3 condition; for Emax IL2 (% activation): 24 hours, 20 μM reference compound A1 = 100%; for EC50: Homo sapiens, T-cell, IL2 secretion after 24 hours, read-out: Tcell IL2 CD3 EC50
Method in brief: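 Expanded primary human T-cells (100 k/well, RPMI + 5% human serum) on plate-bound anti-CD3 (donor-titrated) or PBS counter-screen wells, 5–6 pt dose response from 20 or 10 μM top (dilution factor 3.333), 0.2% DMSO final. IL-2 in 24 h supernatant by ProQuantum immunoassay or ELISA. Normalised to DMSO (0%) and 20 μM reference A1 (100%); EC50 and Emax from sigmoidal fit.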

primary human T-cells [4] = experiment: T-cell proliferation assay (CellTiter-Glo); type: cell-based; conditions: CD3 condition; for Emax proliferation (% activation): 5 days, 20 μM reference compound A1 = 100%; for EC50: Homo sapiens, T-cell, 120 h, proliferation after 5 days, CellTiter-Glo, read-out: Tcell Proliferation CD3 EC50

Sequence of DGKalpha (hDGKalpha(1-735)-N-His) (P23743 whole entry): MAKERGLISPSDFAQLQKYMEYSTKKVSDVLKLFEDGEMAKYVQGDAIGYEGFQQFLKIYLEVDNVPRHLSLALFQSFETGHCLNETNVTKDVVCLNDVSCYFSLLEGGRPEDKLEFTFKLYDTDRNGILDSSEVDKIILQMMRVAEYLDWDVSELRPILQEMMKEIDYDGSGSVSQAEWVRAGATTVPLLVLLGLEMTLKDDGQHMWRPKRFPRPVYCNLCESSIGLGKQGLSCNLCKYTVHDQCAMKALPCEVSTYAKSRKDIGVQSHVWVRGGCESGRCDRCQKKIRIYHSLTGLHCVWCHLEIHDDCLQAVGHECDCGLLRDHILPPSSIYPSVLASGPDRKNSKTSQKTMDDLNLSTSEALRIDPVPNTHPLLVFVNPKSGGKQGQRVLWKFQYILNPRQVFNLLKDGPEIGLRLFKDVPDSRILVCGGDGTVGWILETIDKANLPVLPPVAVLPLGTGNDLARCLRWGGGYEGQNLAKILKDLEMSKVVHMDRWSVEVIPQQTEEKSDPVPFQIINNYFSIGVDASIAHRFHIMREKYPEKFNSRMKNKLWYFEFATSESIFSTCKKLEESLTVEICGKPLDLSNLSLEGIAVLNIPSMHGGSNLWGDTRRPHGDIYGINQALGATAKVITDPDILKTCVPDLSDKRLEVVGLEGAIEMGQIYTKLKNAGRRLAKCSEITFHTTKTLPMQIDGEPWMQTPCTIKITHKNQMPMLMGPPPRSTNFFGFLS

| IC50 [1] | IC50 [2] | EC50 (primary human T-cells [3]) | Compound | Emax IL2 (% activation) (primary human T-cells [3]) | Emax proliferation (% activation) (primary human T-cells [4]) | EC50 (primary human T-cells [4]) |
| --- | --- | --- | --- | --- | --- | --- |
| 22200 nM | 20000 nM | 2230 nM | N[C@H]1CS(=O)(=O)c2cc(F)c(-c3cnnc(OCC(F)(F)F)c3)cc2N(Cc2ccc(-c3noc(C(F)(F)F)n3)cc2)C1=O [Example 33, (3R)-3-amino-8-fluoro-1,1-dioxo-7-[6-(2,2,2-trifluoroethoxy)pyridazin-4-yl]-5-[[4-[5-(trifluoromethyl)-1,2,4-oxadiazol-3-yl]phenyl]methyl]-2,3-dihydro-1λ6,5-benzothiazepin-4-one] | 154 % activation | 103 % activation | 298 nM |
| 1660 nM | 1730 nM | > 10000 nM | CS(=O)(=O)C(CCCl)c1cnnc(-c2cc3c(cc2F)S(=O)(=O)C[C@H](N)C(=O)N3Cc2ccc(Cl)cc2)n1 (stereo partly drawn) [Example 20, (3R)-3-amino-7-[5-(3-chloro-1-methylsulfonyl-propyl)-1,2,4-triazin-3-yl]-5-[(4-chlorophenyl)methyl]-8-fluoro-1,1-dioxo-2,3-dihydro-1λ6,5-benzothiazepin-4-one] | 39 % activation | 87 % activation | 9110 nM |
| 13000 nM | 3210 nM | 966 nM | CC(C)(C)c1cc(-c2cc3c(cc2F)S(=O)(=O)C[C@H](N)C(=O)N3Cc2ccc(-c3ccc(C(F)(F)F)cn3)cc2)cnn1 [Example 32, (3R)-3-amino-7-(6-tert-butylpyridazin-4-yl)-8-fluoro-1,1-dioxo-5-[[4-[5-(trifluoromethyl)-2-pyridyl]phenyl]methyl]-2,3-dihydro-1λ6,5-benzothiazepin-4-one] | 53 % activation | 164 % activation | 439 nM |
| 24500 nM | 1500 nM | 1560 nM | CC(C)(C)c1nncc(-c2cc3c(cc2F)S(=O)(=O)C[C@H](N)C(=O)N3Cc2ccc(-c3noc(C(F)(F)F)n3)cc2)n1 [Example 36, (3R)-3-amino-8-fluoro-1,1-dioxo-7(3R)-3-amino-7-(3-tert-butyl-1,2,4-triazin-5-yl)-8-fluoro-1,1-dioxo-5-[[4-[5-(trifluoromethyl)-1,2,4-oxadiazol-3-yl]phenyl]methyl]-2,3-dihydro-1λ6,5-benzothiazepin-4-one] | 88 % activation | 108 % activation | 1350 nM |
